Measured values as given in ChEMBL document CHEMBL1201861, “Genomics of Drug Sensitity in Cancer screening data, Wellcome Trust Sanger Institute”.

Key:
Experiment in all cases: cells
HC-1 = type: functional, cell-based; conditions: Homo sapiens;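 note: growth inhibition of HC-1 cells measured by a cell viability assay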
Description: SANGER: Inhibition of human HC-1 cell growth in a cell viability assay.

NCI-H1092 = type: functional, cell-based; conditions: Homo sapiens;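 note: cell growth inhibition measured with a cell viability assay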
Description: SANGER: Inhibition of human NCI-H1092 cell growth in a cell viability assay.

SW1573 = type: functional, cell-based, Homo sapiens; conditions: Homo sapiens, SW1573;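 note: growth inhibition of SW1573 cells, read out with a cell viability assay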
Description: SANGER: Inhibition of human SW1573 cell growth in a cell viability assay.

SK-UT-1 = type: functional, cell-based, Homo sapiens; conditions: Homo sapiens, SK-UT-1;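 note: growth inhibition of SK-UT-1 cells, measured by a cell viability assay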
Description: SANGER: Inhibition of human SK-UT-1 cell growth in a cell viability assay.

SHP77 = type: functional, cell-based, Homo sapiens, SHP-77; conditions: Homo sapiens, SHP77;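 note: growth inhibition of human SHP-77 cells measured by a cell viability assay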
Description: SANGER: Inhibition of human SHP-77 cell growth in a cell viability assay.

G-401 = type: functional, cell-based, Homo sapiens; conditions: Homo sapiens, G-401
Description: SANGER: Inhibition of human G-401 cell growth in a cell viability assay.

A498 = type: functional, cell-based, Homo sapiens; conditions: Homo sapiens, A498;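 note: growth inhibition of human A498 cells, read out with a cell viability assay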
Description: SANGER: Inhibition of human A498 cell growth in a cell viability assay.

CAL-62 = type: functional, cell-based, Homo sapiens; conditions: Homo sapiens, CAL-62;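 note: growth inhibition of CAL-62 cells, read out with a cell viability assay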
Description: SANGER: Inhibition of human CAL-62 cell growth in a cell viability assay.

BB49-HNC = type: functional, cell-based, Homo sapiens; conditions: Homo sapiens, BB49-HNC;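 note: cell viability assay read-out, reported as inhibition of BB49-HNC cell growth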
Description: SANGER: Inhibition of human BB49-HNC cell growth in a cell viability assay.

BCPAP = type: functional, cell-based, Homo sapiens; conditions: Homo sapiens, BCPAP;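 note: growth inhibition of BCPAP cells, read out in a cell viability assay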
Description: SANGER: Inhibition of human BCPAP cell growth in a cell viability assay.

NCI-H1755 = type: functional, cell-based, Homo sapiens; conditions: Homo sapiens, NCI-H1755;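 note: cell viability readout used to measure growth inhibition of NCI-H1755 cells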
Description: SANGER: Inhibition of human NCI-H1755 cell growth in a cell viability assay.

647-V = type: functional, cell-based, Homo sapiens; conditions: Homo sapiens, 647-V;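 note: growth inhibition of 647-V cells, read out with a cell viability assay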
Description: SANGER: Inhibition of human 647-V cell growth in a cell viability assay.

NCI-H1651 = type: functional, cell-based, Homo sapiens; conditions: Homo sapiens, NCI-H1651;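 note: Read-out is a cell viability assay, with IC50 expressing inhibition of NCI-H1651 cell growth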
Description: SANGER: Inhibition of human NCI-H1651 cell growth in a cell viability assay.

RPMI-8226 = type: functional, cell-based; conditions: Homo sapiens
Description: SANGER: Inhibition of human RPMI-8226 cell growth in a cell viability assay.

H4 = type: functional, cell-based; conditions: Homo sapiens
Description: SANGER: Inhibition of human H4 cell growth in a cell viability assay.

LB831-BLC = type: functional, cell-based, Homo sapiens; conditions: Homo sapiens, LB831-BLC;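 note: growth inhibition of LB831-BLC cells, read out with a cell viability assay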
Description: SANGER: Inhibition of human LB831-BLC cell growth in a cell viability assay.

LB373-MEL-D = type: functional, cell-based, Homo sapiens; conditions: Homo sapiens, LB373-MEL-D;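 note: growth inhibition of the cell line, read out in a cell viability assay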
Description: SANGER: Inhibition of human LB373-MEL-D cell growth in a cell viability assay.

NY = type: functional, cell-based, Homo sapiens; conditions: Homo sapiens, NY
Description: SANGER: Inhibition of human NY cell growth in a cell viability assay.

COLO-679 = type: functional, cell-based, Homo sapiens; conditions: Homo sapiens, COLO-679
Description: SANGER: Inhibition of human COLO-679 cell growth in a cell viability assay.

HCE-4 = type: functional, cell-based, Homo sapiens; conditions: Homo sapiens, HCE-4;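 note: cell viability assay measuring inhibition of growth in the human HCE-4 cell line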
Description: SANGER: Inhibition of human HCE-4 cell growth in a cell viability assay.

GR-ST = type: functional, cell-based; conditions: Homo sapiens
Description: SANGER: Inhibition of human GR-ST cell growth in a cell viability assay.

SW13 = type: functional, cell-based, Homo sapiens; conditions: Homo sapiens, SW13;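 note: IC50 is inhibition of SW13 cell growth, read out with a cell viability assay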
Description: SANGER: Inhibition of human SW13 cell growth in a cell viability assay.

EW-3 = type: functional, cell-based; conditions: Homo sapiens;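 note: cell viability assay read-out, IC50 reflects inhibition of growth of the EW-3 cells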
Description: SANGER: Inhibition of human EW-3 cell growth in a cell viability assay.

SJSA-1 = type: functional, cell-based, Homo sapiens; conditions: Homo sapiens, SJSA-1;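 note: growth inhibition of human SJSA-1 cells, read out through a cell viability measurement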
Description: SANGER: Inhibition of human SJSA-1 cell growth in a cell viability assay.

YKG-1 = type: functional, cell-based, Homo sapiens; conditions: Homo sapiens, YKG-1;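 note: cell growth inhibition, read out with a viability assay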
Description: SANGER: Inhibition of human YKG-1 cell growth in a cell viability assay.

MHH-PREB-1 = type: functional, cell-based; conditions: Homo sapiens;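 note: cell viability assay measuring inhibition of proliferation of human MHH-PREB-1 cells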
Description: SANGER: Inhibition of human MHH-PREB-1 cell growth in a cell viability assay.

IST-SL1 = type: functional, cell-based, Homo sapiens; conditions: Homo sapiens, IST-SL1;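 note: growth inhibition of human IST-SL1 cells, read out with a cell viability assay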
Description: SANGER: Inhibition of human IST-SL1 cell growth in a cell viability assay.

SK-NEP-1 = type: functional, cell-based; conditions: Homo sapiens;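 note: growth inhibition of human SK-NEP-1 cells, read out by a cell viability assay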
Description: SANGER: Inhibition of human SK-NEP-1 cell growth in a cell viability assay.

D-336MG = type: functional, cell-based, Homo sapiens; conditions: Homo sapiens, D-336MG
Description: SANGER: Inhibition of human D-336MG cell growth in a cell viability assay.

HTC-C3 = type: functional, cell-based, Homo sapiens; conditions: Homo sapiens, HTC-C3;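 note: inhibition of cell growth, read out with a cell viability assay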
Description: SANGER: Inhibition of human HTC-C3 cell growth in a cell viability assay.

TCC-SUP = type: functional, cell-based, Homo sapiens; conditions: Homo sapiens, TCC-SUP;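 note: growth inhibition of TCC-SUP cells, read out with a cell viability assay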
Description: SANGER: Inhibition of human TCCSUP cell growth in a cell viability assay.

Becker = type: functional, cell-based, Homo sapiens; conditions: Homo sapiens, Becker;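 note: growth inhibition of Becker cells, read out with a cell viability assay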
Description: SANGER: Inhibition of human Becker cell growth in a cell viability assay.

A4-Fuk = type: functional, cell-based; conditions: Homo sapiens;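 note: growth inhibition of A4-Fuk cells, read out by a cell viability assay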
Description: SANGER: Inhibition of human A4-Fuk cell growth in a cell viability assay.

SNU-449 = type: functional, cell-based, Homo sapiens; conditions: Homo sapiens, SNU-449
Description: SANGER: Inhibition of human SNU-449 cell growth in a cell viability assay.

LB2241-RCC = type: functional, cell-based, Homo sapiens; conditions: Homo sapiens, LB2241-RCC;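 note: cell viability assay measuring how strongly the cultured human renal carcinoma line is prevented from growing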
Description: SANGER: Inhibition of human LB2241-RCC cell growth in a cell viability assay.

SCC-15 = type: functional, cell-based, Homo sapiens; conditions: Homo sapiens, SCC-15;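 note: growth inhibition of SCC-15 cells, read out with a cell viability assay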
Description: SANGER: Inhibition of human SCC-15 cell growth in a cell viability assay.

HL-60 = type: functional, cell-based; conditions: Homo sapiens;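 note: growth inhibition of human HL-60 cells, read out with a cell viability assay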
Description: SANGER: Inhibition of human HL-60 cell growth in a cell viability assay.

MC116 = type: functional, cell-based; conditions: Homo sapiens;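 note: growth inhibition of MC116 cells, read out with a cell viability assay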
Description: SANGER: Inhibition of human MC116 cell growth in a cell viability assay.

SF-539 = type: functional, cell-based, Homo sapiens; conditions: Homo sapiens, SF-539;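 note: Read-out is a cell viability assay, with IC50 reflecting inhibition of cell growth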
Description: SANGER: Inhibition of human SF539 cell growth in a cell viability assay.

LS-513 = type: functional, cell-based, Homo sapiens; conditions: Homo sapiens, LS-513
Description: SANGER: Inhibition of human LS-513 cell growth in a cell viability assay.

MDA-MB-175-VII = type: functional, cell-based, Homo sapiens; conditions: Homo sapiens, MDA-MB-175-VII
JVM-3 = type: functional, cell-based; conditions: Homo sapiens;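 note: growth inhibition of human JVM-3 cells, read out with a cell viability assay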
Description: SANGER: Inhibition of human JVM-3 cell growth in a cell viability assay.

OAW-42 = type: functional, cell-based, Homo sapiens; conditions: Homo sapiens, OAW-42;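 note: growth inhibition of OAW-42 cells, read out with a cell viability assay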
Description: SANGER: Inhibition of human OAW-42 cell growth in a cell viability assay.

P30-OHK = type: functional, cell-based; conditions: Homo sapiens;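 note: growth inhibition of the P30-OHK cell line, read out with a cell viability assay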
Description: SANGER: Inhibition of human P30-OHK cell growth in a cell viability assay.

ATN-1 = type: functional, cell-based; conditions: Homo sapiens;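 note: growth inhibition of human ATN-1 cells, read out with a cell viability assay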
Description: SANGER: Inhibition of human ATN-1 cell growth in a cell viability assay.

MSTO-211H = type: functional, cell-based, Homo sapiens; conditions: Homo sapiens, MSTO-211H
Description: SANGER: Inhibition of human MSTO-211H cell growth in a cell viability assay.

DEL = type: functional, cell-based; conditions: Homo sapiens;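 note: growth inhibition of the human DEL cell line, read out with a cell viability assay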
Description: SANGER: Inhibition of human DEL cell growth in a cell viability assay.

NCI-H209 = type: functional, cell-based; conditions: Homo sapiens;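 note: growth inhibition of human NCI-H209 cells, measured by a cell viability assay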
Description: SANGER: Inhibition of human NCI-H209 cell growth in a cell viability assay.

ML-2 = type: functional, cell-based; conditions: Homo sapiens;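 note: growth inhibition of ML-2 cells, measured with a cell viability readout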
Description: SANGER: Inhibition of human ML-2 cell growth in a cell viability assay.

HuCCT-1 = type: functional, cell-based, Homo sapiens, HuCCT1; conditions: Homo sapiens, HuCCT-1;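 note: growth inhibition of HuCCT-1 cells, read out by a cell viability assay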
Description: SANGER: Inhibition of human HuCCT1 cell growth in a cell viability assay.

EW-24 = type: functional, cell-based; conditions: Homo sapiens;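 note: human EW-24 cancer cell line, growth inhibition read out via a cell viability assay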
Description: SANGER: Inhibition of human EW-24 cell growth in a cell viability assay.

CN(C)C/C=C/C(=O)Nc1cc2c(Nc3ccc(F)c(Cl)c3)ncnc2cc1O[C@H]1CCOC1 [AFATINIB]
IC50 (HC-1): > 500 nM | IC50 (NCI-H1092): > 500 nM | IC50 (SW1573): > 500 nM | IC50 (SK-UT-1): > 500 nM | IC50 (SHP77): > 500 nM | IC50 (G-401): > 500 nM | IC50 (A498): 407 nM | IC50 (CAL-62): > 500 nM | IC50 (BB49-HNC): > 500 nM | IC50 (BCPAP): > 500 nM | IC50 (NCI-H1755): > 500 nM | IC50 (647-V): > 500 nM | IC50 (NCI-H1651): > 500 nM | IC50 (RPMI-8226): > 500 nM | IC50 (H4): > 500 nM | IC50 (LB831-BLC): > 500 nM | IC50 (LB373-MEL-D): > 500 nM | IC50 (NY): > 500 nM | IC50 (COLO-679): > 500 nM | IC50 (HCE-4): > 500 nM | IC50 (GR-ST): > 500 nM | IC50 (SW13): 162 nM | IC50 (EW-3): > 500 nM | IC50 (SJSA-1): > 500 nM | IC50 (YKG-1): > 500 nM | IC50 (MHH-PREB-1): > 500 nM | IC50 (IST-SL1): > 500 nM | IC50 (SK-NEP-1): > 500 nM | IC50 (D-336MG): > 500 nM | IC50 (HTC-C3): > 500 nM | IC50 (TCC-SUP): > 500 nM | IC50 (Becker): > 500 nM | IC50 (A4-Fuk): > 500 nM | IC50 (SNU-449): > 500 nM | IC50 (LB2241-RCC): 109 nM | IC50 (SCC-15): > 500 nM | IC50 (HL-60): > 500 nM | IC50 (MC116): > 500 nM | IC50 (SF-539): > 500 nM | IC50 (LS-513): > 500 nM | IC50 (MDA-MB-175-VII): 34.2 nM | IC50 (JVM-3): > 500 nM | IC50 (OAW-42): > 500 nM | IC50 (P30-OHK): > 500 nM | IC50 (ATN-1): > 500 nM | IC50 (MSTO-211H): > 500 nM | IC50 (DEL): > 500 nM | IC50 (NCI-H209): 205 nM | IC50 (ML-2): 248 nM | IC50 (HuCCT-1): > 500 nM | IC50 (EW-24): > 500 nM

O=C(NOCC1CC1)c1ccc(F)c(F)c1Nc1ccc(I)cc1Cl [CI-1040]
IC50 (HC-1): > 10000 nM | IC50 (NCI-H1092): > 10000 nM | IC50 (SW1573): > 10000 nM | IC50 (SK-UT-1): 8980 nM | IC50 (SHP77): > 10000 nM | IC50 (G-401): > 10000 nM | IC50 (A498): > 10000 nM | IC50 (CAL-62): 4070 nM | IC50 (BB49-HNC): > 10000 nM | IC50 (BCPAP): 5330 nM | IC50 (NCI-H1755): > 10000 nM | IC50 (647-V): > 10000 nM | IC50 (NCI-H1651): > 10000 nM | IC50 (RPMI-8226): > 10000 nM | IC50 (H4): 5040 nM | IC50 (LB831-BLC): > 10000 nM | IC50 (LB373-MEL-D): > 10000 nM | IC50 (NY): > 10000 nM | IC50 (COLO-679): 327 nM | IC50 (HCE-4): > 10000 nM | IC50 (GR-ST): 7400 nM | IC50 (SW13): > 10000 nM | IC50 (EW-3): > 10000 nM | IC50 (SJSA-1): > 10000 nM | IC50 (YKG-1): 9750 nM | IC50 (MHH-PREB-1): 4120 nM | IC50 (IST-SL1): > 10000 nM | IC50 (SK-NEP-1): > 10000 nM | IC50 (D-336MG): > 10000 nM | IC50 (HTC-C3): 465 nM | IC50 (TCC-SUP): > 10000 nM | IC50 (Becker): > 10000 nM | IC50 (A4-Fuk): 1570 nM | IC50 (SNU-449): > 10000 nM | IC50 (LB2241-RCC): 2860 nM | IC50 (SCC-15): > 10000 nM | IC50 (HL-60): 411 nM | IC50 (MC116): > 10000 nM | IC50 (SF-539): > 10000 nM | IC50 (LS-513): 1450 nM | IC50 (MDA-MB-175-VII): > 10000 nM | IC50 (JVM-3): > 10000 nM | IC50 (OAW-42): > 10000 nM | IC50 (P30-OHK): 9650 nM | IC50 (ATN-1): > 10000 nM | IC50 (MSTO-211H): 9960 nM | IC50 (DEL): > 10000 nM | IC50 (NCI-H209): > 10000 nM | IC50 (ML-2): 1530 nM | IC50 (HuCCT-1): 7010 nM | IC50 (EW-24): > 10000 nM
